The NIST ThermoML archive (doi:10.1016/j.jct.2012.06.012)

Assay: xn = mol fraction of the nth substance listed
Conditions: Liquid, Vibrating tube method

CCCCCCCCCC [decane] + CCO
Conditions	mass density [kg/m3]
323 K, 1000 kPa, x2 = 0.1011	707.24
323 K, 2000 kPa, x2 = 0.1011	708.19
323 K, 3000 kPa, x2 = 0.1011	709.13
323 K, 4000 kPa, x2 = 0.1011	710.05
323 K, 5000 kPa, x2 = 0.1011	710.96
323 K, 6000 kPa, x2 = 0.1011	711.86
323 K, 7000 kPa, x2 = 0.1011	712.75
323 K, 8000 kPa, x2 = 0.1011	713.62
323 K, 9000 kPa, x2 = 0.1011	714.5
323 K, 10000 kPa, x2 = 0.1011	715.37
323 K, 11000 kPa, x2 = 0.1011	716.23
323 K, 12000 kPa, x2 = 0.1011	717.09
323 K, 13000 kPa, x2 = 0.1011	717.94
323 K, 14000 kPa, x2 = 0.1011	718.79
323 K, 15000 kPa, x2 = 0.1011	719.61
323 K, 16000 kPa, x2 = 0.1011	720.42
323 K, 17000 kPa, x2 = 0.1011	721.22
323 K, 18000 kPa, x2 = 0.1011	722.01
323 K, 19000 kPa, x2 = 0.1011	722.76
323 K, 20000 kPa, x2 = 0.1011	723.51
323.03 K, 1000 kPa, x2 = 0.7526	729.67
323.03 K, 2000 kPa, x2 = 0.7526	730.66
323.03 K, 3000 kPa, x2 = 0.7526	731.64
323.03 K, 4000 kPa, x2 = 0.7526	732.61
323.03 K, 5000 kPa, x2 = 0.7526	733.56
323.03 K, 6000 kPa, x2 = 0.7526	734.49
323.03 K, 7000 kPa, x2 = 0.7526	735.43
323.03 K, 8000 kPa, x2 = 0.7526	736.37
323.03 K, 9000 kPa, x2 = 0.7526	737.3
323.03 K, 10000 kPa, x2 = 0.7526	738.24
323.03 K, 11000 kPa, x2 = 0.7526	739.17
323.03 K, 12000 kPa, x2 = 0.7526	740.08
323.03 K, 13000 kPa, x2 = 0.7526	741
323.03 K, 14000 kPa, x2 = 0.7526	741.9
323.03 K, 15000 kPa, x2 = 0.7526	742.78
323.03 K, 16000 kPa, x2 = 0.7526	743.66
323.03 K, 17000 kPa, x2 = 0.7526	744.51
323.03 K, 18000 kPa, x2 = 0.7526	745.35
323.03 K, 19000 kPa, x2 = 0.7526	746.18
323.03 K, 20000 kPa, x2 = 0.7526	746.98
323.06 K, 1000 kPa, x2 = 0.2507	709.58
323.06 K, 2000 kPa, x2 = 0.2507	710.54
323.06 K, 3000 kPa, x2 = 0.2507	711.48
323.06 K, 4000 kPa, x2 = 0.2507	712.41
323.06 K, 5000 kPa, x2 = 0.2507	713.33
323.06 K, 6000 kPa, x2 = 0.2507	714.23
323.06 K, 7000 kPa, x2 = 0.2507	715.12
323.06 K, 8000 kPa, x2 = 0.2507	716.01
323.06 K, 9000 kPa, x2 = 0.2507	716.9
323.06 K, 10000 kPa, x2 = 0.2507	717.78
323.06 K, 11000 kPa, x2 = 0.2507	718.65
323.06 K, 12000 kPa, x2 = 0.2507	719.53
323.06 K, 13000 kPa, x2 = 0.2507	720.39
323.06 K, 14000 kPa, x2 = 0.2507	721.24
323.06 K, 15000 kPa, x2 = 0.2507	722.08
323.06 K, 16000 kPa, x2 = 0.2507	722.91
323.06 K, 17000 kPa, x2 = 0.2507	723.72
323.06 K, 18000 kPa, x2 = 0.2507	724.51
323.06 K, 19000 kPa, x2 = 0.2507	725.28
323.06 K, 20000 kPa, x2 = 0.2507	726.04
332.86 K, 1000 kPa, x2 = 0.0937	699.25
332.86 K, 1000 kPa, x2 = 0.9014	736.03
332.86 K, 2000 kPa, x2 = 0.0937	700.26
332.86 K, 2000 kPa, x2 = 0.9014	737.11
332.86 K, 3000 kPa, x2 = 0.0937	701.26
332.86 K, 3000 kPa, x2 = 0.9014	738.18
332.86 K, 4000 kPa, x2 = 0.0937	702.24
332.86 K, 4000 kPa, x2 = 0.9014	739.22
332.86 K, 5000 kPa, x2 = 0.0937	703.21
332.86 K, 5000 kPa, x2 = 0.9014	740.19
332.86 K, 6000 kPa, x2 = 0.0937	704.16
332.86 K, 6000 kPa, x2 = 0.9014	741.29
332.86 K, 7000 kPa, x2 = 0.0937	705.1
332.86 K, 7000 kPa, x2 = 0.9014	742.31
332.86 K, 8000 kPa, x2 = 0.0937	706.03
332.86 K, 8000 kPa, x2 = 0.9014	743.33
332.86 K, 9000 kPa, x2 = 0.0937	706.94
332.86 K, 9000 kPa, x2 = 0.9014	744.36
332.86 K, 10000 kPa, x2 = 0.0937	707.85
332.86 K, 10000 kPa, x2 = 0.9014	745.34
332.86 K, 11000 kPa, x2 = 0.0937	708.77
332.86 K, 11000 kPa, x2 = 0.9014	746.35
332.86 K, 12000 kPa, x2 = 0.0937	709.67
332.86 K, 12000 kPa, x2 = 0.9014	747.33
332.86 K, 13000 kPa, x2 = 0.0937	710.57
332.86 K, 13000 kPa, x2 = 0.9014	748.31
332.86 K, 14000 kPa, x2 = 0.0937	711.45
332.86 K, 14000 kPa, x2 = 0.9014	749.26
332.86 K, 15000 kPa, x2 = 0.0937	712.31
332.86 K, 15000 kPa, x2 = 0.9014	750.21
